Assay results from PubChem BioAssay AID248 (DTP/NCI, 2004).
Several values for one entry are separate records, joined by “and”; a condition that tells them apart may be missing. Identical values can stand only once. Toxic doses and inconclusive results are not listed.

Test system: L1210 leukemia ip in BDF1 mice, survival T/C
Assay: NCI In Vivo Anticancer Drug Screen. Data for tumor model L1210 Leukemia (intraperitoneal) in B6D2F1 (BDF1) mice
Settings: higher = longer survival
Procedure, shortened: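 Read-out is survival time, reported as the treated-group measurement over the vehicle-control measurement.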

[1] = endpoint: mean survival time, dose: 100.0 mg/kg/injection, schedule: Q01DX001 (ip), vehicle: Klucel (hydroxypropylcellulose) (HPC)
[2] = endpoint: mean survival time, dose: 200.0 mg/kg/injection, schedule: Q01DX001 (ip), vehicle: Klucel (hydroxypropylcellulose) (HPC)
[3] = endpoint: mean survival time, dose: 400.0 mg/kg/injection, schedule: Q01DX001 (ip), vehicle: Klucel (hydroxypropylcellulose) (HPC)
[4] = endpoint: mean survival time, dose: 100.0 mg/kg/injection, schedule: Q01DX009 (ip), vehicle: saline with Tween-80
[5] = endpoint: mean survival time, dose: 200.0 mg/kg/injection, schedule: Q01DX009 (ip), vehicle: saline with Tween-80
[6] = endpoint: mean survival time, dose: 100.0 mg/kg/injection, schedule: Q04DX003 (ip), vehicle: saline with Tween-80
[7] = endpoint: mean survival time, dose: 200.0 mg/kg/injection, schedule: Q04DX003 (ip), vehicle: saline with Tween-80
[8] = endpoint: mean survival time, dose: 400.0 mg/kg/injection, schedule: Q04DX003 (ip), vehicle: saline with Tween-80
[9] = endpoint: mean survival time, dose: 25.0 mg/kg/injection, schedule: Q04DX003 (ip), vehicle: saline with Tween-80
[10] = endpoint: mean survival time, dose: 100.0 mg/kg/injection, schedule: Q01DX001 (ip), vehicle: saline
[11] = endpoint: mean survival time, dose: 200.0 mg/kg/injection, schedule: Q01DX001 (ip), vehicle: saline
[12] = endpoint: mean survival time, dose: 400.0 mg/kg/injection, schedule: Q01DX001 (ip), vehicle: saline
[13] = endpoint: mean survival time, dose: 25.0 mg/kg/injection, schedule: Q04DX002 (ip), vehicle: saline with Tween-80

## CC1(CC(=O)NN)OCCO1
[1]
  T/C: 104 % of control
[2]
  T/C: 102 % of control
[3]
  T/C: 107 % of control

## Nc1ccn(C2OC(COP(=O)(O)O)C(O)C2O)c(=O)n1 (configuration not stated)
endpoint: mean survival time, dose: 2.5 mg/kg/injection, schedule: Q01DX009 (ip), vehicle: other
  T/C: 108 % of control
endpoint: mean survival time, dose: 5.0 mg/kg/injection, schedule: Q01DX009 (ip), vehicle: other
  T/C: 96 % of control
endpoint: mean survival time, dose: 10.0 mg/kg/injection, schedule: Q01DX009 (ip), vehicle: other
  T/C: 116 % of control
endpoint: mean survival time, dose: 18.0 mg/kg/injection, schedule: Q01DX Z (ip), vehicle: saline
  T/C: 193 % of control
endpoint: mean survival time, dose: 26.5 mg/kg/injection, schedule: Q01DX Z (ip), vehicle: saline
  T/C: 195 % of control
endpoint: mean survival time, dose: 40.0 mg/kg/injection, schedule: Q01DX Z (ip), vehicle: saline
  T/C: 218 % of control
endpoint: mean survival time, dose: 60.0 mg/kg/injection, schedule: Q01DX Z (ip), vehicle: saline
  T/C: 157 % of control
endpoint: median survival time, dose: 22.0 mg/kg/injection, schedule: Q01DX009 (ip), vehicle: sodium bicarbonate
  T/C: 171 % of control
endpoint: median survival time, dose: 33.0 mg/kg/injection, schedule: Q01DX009 (ip), vehicle: sodium bicarbonate
  T/C: 177 % of control
endpoint: median survival time, dose: 46.0 mg/kg/injection, schedule: Q01DX009 (ip), vehicle: sodium bicarbonate
  T/C: 177 % of control
endpoint: median survival time, dose: 66.0 mg/kg/injection, schedule: Q01DX009 (ip), vehicle: sodium bicarbonate
  T/C: 181 % of control

## CCOP(=O)(OCC)C1=C(CC)CC1
endpoint: mean survival time, dose: 9.5 mg/kg/injection, schedule: Q01DX001 (ip), vehicle: other
  T/C: 109 % of control
endpoint: mean survival time, dose: 19.0 mg/kg/injection, schedule: Q01DX001 (ip), vehicle: other
  T/C: 111 % of control
endpoint: mean survival time, dose: 38.0 mg/kg/injection, schedule: Q01DX001 (ip), vehicle: other
  T/C: 106 % of control

## COC(=O)c1coc(C(=O)N2CCCC2)c1C(=O)O
endpoint: mean survival time, dose: 75.0 mg/kg/injection, schedule: Q04DX003 (ip), vehicle: Klucel (hydroxypropylcellulose) (HPC)
  T/C: 93 % of control
[1]
  T/C: 103 % of control
endpoint: mean survival time, dose: 150.0 mg/kg/injection, schedule: Q04DX003 (ip), vehicle: Klucel (hydroxypropylcellulose) (HPC)
  T/C: 105 % of control
[2]
  T/C: 101 % of control
endpoint: mean survival time, dose: 300.0 mg/kg/injection, schedule: Q04DX003 (ip), vehicle: Klucel (hydroxypropylcellulose) (HPC)
  T/C: 98 % of control
[3]
  T/C: 103 % of control

## CCCCCC#CC(=O)OCC
[4]
  T/C: 100 % of control
[5]
  T/C: 89 % of control

## O=C(CCl)Nc1cccc2c1C(=O)c1c(c(O)c3ccccc3c1O)C2=O
[6]
  T/C: 94 % of control
[7]
  T/C: 92 % of control
[8]
  T/C: 90 % of control

## C#CC[N+]12CN3CN(CN(C3)C1)C2
endpoint: mean survival time, dose: 100.0 mg/kg/injection, schedule: Q04DX003 (ip), vehicle: saline
  T/C: 101 % of control
endpoint: mean survival time, dose: 200.0 mg/kg/injection, schedule: Q04DX003 (ip), vehicle: saline
  T/C: 98 % of control
endpoint: mean survival time, dose: 400.0 mg/kg/injection, schedule: Q04DX003 (ip), vehicle: saline
  T/C: 102 % of control

## O=c1cc(CCl)[nH]nc1CCl
endpoint: mean survival time, dose: 6.0 mg/kg/injection, schedule: Q04DX003 (ip), vehicle: saline with Tween-80
  T/C: 110 % of control
endpoint: mean survival time, dose: 9.5 mg/kg/injection, schedule: Q04DX003 (ip), vehicle: saline with Tween-80
  T/C: 110 % of control
endpoint: mean survival time, dose: 14.5 mg/kg/injection, schedule: Q04DX003 (ip), vehicle: saline with Tween-80
  T/C: 117 % of control
endpoint: mean survival time, dose: 22.0 mg/kg/injection, schedule: Q04DX003 (ip), vehicle: saline with Tween-80
  T/C: 115 % of control and 124 % of control
[9]
  T/C: 115 % of control
endpoint: mean survival time, dose: 33.0 mg/kg/injection, schedule: Q04DX003 (ip), vehicle: saline with Tween-80
  T/C: 124 % of control
endpoint: mean survival time, dose: 75.0 mg/kg/injection, schedule: Q04DX003 (ip), vehicle: saline with Tween-80
  T/C: 113 % of control
[6]
  T/C: 111 % of control

## N#CCc1ccc(N=Cc2ccc([N+](=O)[O-])s2)cc1
[9]
  T/C: 102 % of control
endpoint: mean survival time, dose: 50.0 mg/kg/injection, schedule: Q04DX003 (ip), vehicle: saline with Tween-80
  T/C: 90 % of control

## NC(=O)N/N=C(\CF)C(=O)O
endpoint: mean survival time, dose: 6.0 mg/kg/injection, schedule: Q01DX009 (ip), vehicle: Klucel (hydroxypropylcellulose) (HPC)
  T/C: 98 % of control
endpoint: mean survival time, dose: 12.0 mg/kg/injection, schedule: Q01DX009 (ip), vehicle: Klucel (hydroxypropylcellulose) (HPC)
  T/C: 110 % of control
endpoint: mean survival time, dose: 24.0 mg/kg/injection, schedule: Q01DX009 (ip), vehicle: Klucel (hydroxypropylcellulose) (HPC)
  T/C: 101 % of control
endpoint: mean survival time, dose: 48.0 mg/kg/injection, schedule: Q01DX009 (ip), vehicle: Klucel (hydroxypropylcellulose) (HPC)
  T/C: 102 % of control

## CC(Cl)CNC(C)C (configuration not stated)
[10]
  T/C: 103 % of control
[11]
  T/C: 92 % of control
[12]
  T/C: 103 % of control

## N#CSCc1ccc(CSC#N)c(Br)c1
endpoint: mean survival time, dose: 75.0 mg/kg/injection, schedule: Q01DX009 (ip), vehicle: saline
  T/C: 88 % of control

## CC(=O)OCC(=O)[C@@]1(O)CC[C@H]2[C@@H]3CCC4=CC(=O)C=C[C@]4(C)[C@H]3C(=O)C[C@@]21C
endpoint: mean survival time, dose: 12.5 mg/kg/injection, schedule: Q01DX009 (ip), vehicle: Klucel (hydroxypropylcellulose) (HPC)
  T/C: 93 % of control
endpoint: mean survival time, dose: 25.0 mg/kg/injection, schedule: Q01DX009 (ip), vehicle: Klucel (hydroxypropylcellulose) (HPC)
  T/C: 98 % of control
endpoint: mean survival time, dose: 50.0 mg/kg/injection, schedule: Q01DX009 (ip), vehicle: Klucel (hydroxypropylcellulose) (HPC)
  T/C: 103 % of control
endpoint: mean survival time, dose: 75.0 mg/kg/injection, schedule: Q01DX009 (ip), vehicle: Klucel (hydroxypropylcellulose) (HPC)
  T/C: 100 % of control
endpoint: mean survival time, dose: 115.0 mg/kg/injection, schedule: Q01DX009 (ip), vehicle: Klucel (hydroxypropylcellulose) (HPC)
  T/C: 98 % of control
endpoint: mean survival time, dose: 170.0 mg/kg/injection, schedule: Q01DX009 (ip), vehicle: Klucel (hydroxypropylcellulose) (HPC)
  T/C: 103 % of control
endpoint: mean survival time, dose: 255.0 mg/kg/injection, schedule: Q01DX009 (ip), vehicle: Klucel (hydroxypropylcellulose) (HPC)
  T/C: 86 % of control

## O=C(CCl)OCCCl
[13]
  T/C: 95 % of control
endpoint: mean survival time, dose: 50.0 mg/kg/injection, schedule: Q04DX002 (ip), vehicle: saline with Tween-80
  T/C: 103 % of control
endpoint: mean survival time, dose: 100.0 mg/kg/injection, schedule: Q04DX002 (ip), vehicle: saline with Tween-80
  T/C: 93 % of control and 95 % of control

## CC(C)C(=O)[O][Sn]([CH2]c1ccccc1)([CH2]c1ccccc1)[CH2]c1ccccc1
[6]
  T/C: 88 % of control

## Cc1ccc(C2(C#N)CC2)cc1
[4]
  T/C: 98 % of control
[6]
  T/C: 108 % of control
[5]
  T/C: 98 % of control
[7]
  T/C: 104 % of control
endpoint: mean survival time, dose: 400.0 mg/kg/injection, schedule: Q01DX009 (ip), vehicle: saline with Tween-80
  T/C: 112 % of control
[8]
  T/C: 104 % of control

## N=C1c2ccccc2-c2ccccc21
[6]
  T/C: 96 % of control
[7]
  T/C: 88 % of control

## CCOC(=O)CC1CCC/C1=N/O (configuration not stated)
endpoint: mean survival time, dose: 75.0 mg/kg/injection, schedule: Q01DX009 (sc), vehicle: olive oil, sesame oil, peanut oil
  T/C: 98 % of control
endpoint: mean survival time, dose: 150.0 mg/kg/injection, schedule: Q01DX009 (sc), vehicle: olive oil, sesame oil, peanut oil
  T/C: 94 % of control
endpoint: mean survival time, dose: 300.0 mg/kg/injection, schedule: Q01DX009 (sc), vehicle: olive oil, sesame oil, peanut oil
  T/C: 100 % of control

## CCCCCCCCCCCCCCOc1ccc(C(=S)N2CCOCC2)cc1OC
endpoint: mean survival time, dose: 100.0 mg/kg/injection, schedule: Q04DX003 (ip), vehicle: Klucel (hydroxypropylcellulose) (HPC)
  T/C: 100 % of control
endpoint: mean survival time, dose: 200.0 mg/kg/injection, schedule: Q04DX003 (ip), vehicle: Klucel (hydroxypropylcellulose) (HPC)
  T/C: 100 % of control
endpoint: mean survival time, dose: 400.0 mg/kg/injection, schedule: Q04DX003 (ip), vehicle: Klucel (hydroxypropylcellulose) (HPC)
  T/C: 94 % of control

## CCCCC(=O)N(CCC)CCC
endpoint: mean survival time, dose: 100.0 mg/kg/injection, schedule: Q04DX002 (ip), vehicle: saline
  T/C: 96 % of control
endpoint: mean survival time, dose: 200.0 mg/kg/injection, schedule: Q04DX002 (ip), vehicle: saline
  T/C: 104 % of control
endpoint: mean survival time, dose: 400.0 mg/kg/injection, schedule: Q04DX002 (ip), vehicle: saline
  T/C: 104 % of control

## CCOc1ccccc1N1C(=O)C=CC1=O
endpoint: mean survival time, dose: 12.5 mg/kg/injection, schedule: Q04DX002 (ip), vehicle: saline with Tween-80
  T/C: 96 % of control
[13]
  T/C: 109 % of control

## O=C1C(O)C23CC=CCC12CC=CC3 (configuration not stated)
[10]
  T/C: 116 % of control
[11]
  T/C: 105 % of control
[12]
  T/C: 100 % of control
